Like-named read-outs stand apart in the source and are kept apart here. Marks after values point to notes of the source that are not given here.
How the values were obtained:
Type in all cases: in vivo
Cercospora arachidicola = assay: Foliar fungal disease test on plants: Cercospora arachidicola (Ca); details: 100 ppm active ingredient foliar spray plus root drench (approx. 40 ppm a.i. in dry soil), one or two days before inoculation
Protocol: (§1) The compounds were tested against a variety of foliar fungal diseases of plants. The technique employed was as follows.
(§2) The plants were grown in John Innes Potting Compost (No.1 or 2) in 4 cm diameter minipots. The test compounds were formulated either by bead milling with aqueous Dispersol T or as a solution in acetone or acetone/ethanol which was diluted to the required concentration immediately before use. For the foliage diseases, the formulations (100 ppm active ingredient except where otherwise indicated) were sprayed onto the foliage and applied to the roots of the plants in the soil. The sprays were applied to maximum retention and the root drenches to a final concentration equivalent to approximately 40 ppm a.i. in dry soil. Tween 20, to give a final concentration of 0.05%, was added when the sprays were applied to cereals.
(§3) For most of the tests the compound was applied to the soil (roots) and to the foliage (by spraying) one or two days before the plant was inoculated with the disease. An exception was the test on Erysiphe graminis in which the plants were inoculated 24 hours before treatment. Foliar pathogens were applied by spray as spore suspensions onto the leaves of test plants. After inoculation, the plants were put into an appropriate environment to allow infection to proceed and then incubated until the disease was ready for assessment. The period between inoculation and assessment varied from four to fourteen days according to the disease and environment.
(§4) The disease control vas recorded by the following grading:
(§5) 3=trace-5% of disease on untreated plants
(§6) 2=6-25% of disease on untreated plants
(§7) 1=26-59% of disease on untreated plants
(§8) 0=60-100% of disease on untreated plants
Ca Cercospora arachidicola

Venturia inaequalis = assay: Foliar fungal disease test on plants: Venturia inaequalis (Vi)
How it was run: (§9)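 Potted plants treated by foliar spray to maximum retention (100 ppm a.i. unless stated) plus root drench (~40 ppm a.i. in dry soil), with 0.05% Tween 20 on cereals, one or two days before spore-suspension inoculation.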

Plasmopara viticola = assay: Foliar fungal disease test on plants: Plasmopara viticola (Pv)
How it was run: as §9

Puccinia recondita = assay: Foliar fungal disease test on plants: Puccinia recondita (Pr)
How it was run: as §9

[1] = system: Phytophthora infestans lycopersici
Erysiphe graminis hordei = assay: Foliar fungal disease test on plants: Erysiphe graminis hordei (Egh)
Pyricularia oryzae = system: Pyricularia oryzae
Septoria nodorum = assay: Foliar fungal disease test on plants: Septoria nodorum (Sn)
How it was run: as §9

[2] = system: Erysiphe graminis tritici; assay: Foliar fungal disease test on plants: Erysiphe graminis tritici (Egt)
How it was run: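 Formulations (100 ppm a.i. unless stated, 0.05% Tween 20 on cereals) sprayed to foliage plus root drench (~40 ppm a.i. in dry soil), 24 h after spore-suspension spray inoculation.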

Thanatephorus cucumeris = assay: Foliar fungal disease test on plants: Thanatephorus cucumeris (Tc)
Protocol: as §1, §2, §3, §4, §5, §6, §7, §8
Tc Thanatephorus cucumeris

[3] = 100 ppm active ingredient foliar spray plus root drench (approx. 40 ppm a.i. in dry soil), one or two days before inoculation
[4] = 100 ppm active ingredient foliar spray plus root drench (approx. 40 ppm a.i. in dry soil), plants inoculated 24 hours before treatment

| SMILES | disease control grading, Ca (Cercospora arachidicola) (Cercospora arachidicola) | disease control grading, Vi (Venturia inaegualis) (Venturia inaequalis; [3]) | disease control grading, Pv (Plasmopara viticola) (Plasmopara viticola; [3]) | disease control grading, Pr (Puccinia recondita) (Puccinia recondita; [3]) | disease control grading, Pil (Phytophthora infestans lycopersici) [1, 3] | disease control grading, Egh (Erysiphe graminis hordei) (Erysiphe graminis hordei; [4]) | disease control grading, Po (Pyricularia oryzae) (Pyricularia oryzae; [3]) | disease control grading, Sn (Septoria nodorum) (Septoria nodorum; [3]) | disease control grading, Egt (Erysiphe graminis tritici) [2, 4] | disease control grading, Tc (Thanatephorus cucumeris) (Thanatephorus cucumeris; [3]) | disease control grading, Sn (Septoria nodorum) (Septoria nodorum; 10 ppm foliar application only) | disease control grading, Vi (Venturia inaegualis) (Venturia inaequalis; 10 ppm foliar application only) | disease control grading, Pv (Plasmopara viticola) (Plasmopara viticola; 10 ppm foliar application only) | disease control grading, Pr (Puccinia recondita) (Puccinia recondita; 10 ppm foliar application only) | disease control grading, Pil (Phytophthora infestans lycopersici) ([1]; 10 ppm foliar application only) | disease control grading, Egh (Erysiphe graminis hordei) (Erysiphe graminis hordei; 10 ppm foliar application only) | disease control grading, Po (Pyricularia oryzae) (Pyricularia oryzae; 10 ppm foliar application only) | disease control grading, Tc (Thanatephorus cucumeris) (Thanatephorus cucumeris; 10 ppm foliar application only) | disease control grading, Egt (Erysiphe graminis tritici) ([2]; 10 ppm foliar application only) |
| --- | --- | --- | --- | --- | --- | --- | --- | --- | --- | --- | --- | --- | --- | --- | --- | --- | --- | --- | --- |
| CO/C=C(/C(=O)OC)c1ccccc1Oc1cc(Nc2ccccc2)ncn1 [4 of Table I] | 4 (4=no disease) | 4 (4=no disease) | 4 (4=no disease) | 4 (4=no disease) | 3 (3=trace-5% of disease on untreated plants) | 4 (4=no disease) | 3 (3=trace-5% of disease on untreated plants) |  |  |  |  |  |  |  |  |  |  |  |  |
| CO/C=C(/C(=O)OC)c1ccccc1Oc1cc(OCc2ccccc2)ncn1 [23 of Table I] | 4 (4=no disease) | 4 (4=no disease) | 4 (4=no disease) | 4 (4=no disease) |  | 4 (4=no disease) | 4 (4=no disease) |  |  |  |  |  |  |  |  |  |  |  |  |
| CO/C=C(/C(=O)OC)c1ccccc1Oc1cc(-c2ccccc2)ncn1 [180 of Table I] | 4 (4=no disease) | 4 (4=no disease) | 4 (4=no disease) | 4 (4=no disease) |  | 4 (4=no disease) |  |  |  |  |  |  |  |  |  |  |  |  |  |
| CO/C=C(/C(=O)OC)c1ccccc1Oc1cc(OCc2ccco2)ncn1 [320 of Table I] |  | 4 (4=no disease) | 4 (4=no disease) | 4 (4=no disease) | 4 (4=no disease) |  | 3 (3=trace-5% of disease on untreated plants) | 4 (4=no disease) | 4 (4=no disease) | 4 (4=no disease) |  |  |  |  |  |  |  |  |  |
| CO/C=C(/C(=O)OC)c1ccccc1Oc1cc(S(=O)(=O)c2ccccn2)ncn1 [356 of Table I] | 3 (3=trace-5% of disease on untreated plants) | 4 (4=no disease) | 4 (4=no disease) | 1 (1=26-59% of disease on untreated plants) | 0 (0=60-100% of disease on untreated plants) | 0 (0=60-100% of disease on untreated plants) |  |  |  |  |  |  |  |  |  |  |  |  |  |
| CO/C=C(/C(=O)OC)c1ccccc1Oc1cc(OCCc2ccc(C#N)cc2)ncn1 [359 of Table I] | 4 (4=no disease) |  | 4 (4=no disease) | 4 (4=no disease) | 4 (4=no disease) | 4 (4=no disease) |  |  |  |  |  |  |  |  |  |  |  |  |  |
| CO/C=C(/C(=O)OC)c1ccccc1Oc1cc(OCCSc2ccccc2)ncn1 [391 of Table I] |  | 4 (4=no disease) | 4 (4=no disease) | 4 (4=no disease) | 4 (4=no disease) | 4 (4=no disease) | 3 (3=trace-5% of disease on untreated plants) | 4 (4=no disease) |  | 4 (4=no disease) |  |  |  |  |  |  |  |  |  |
| CO/C=C(/C(=O)OC)c1ccccc1Oc1cc(N(C=O)c2ccccc2O)ncn1 [392 of Table I] |  |  |  |  |  |  |  |  |  |  | 1^a (1=26-59% of disease on untreated plants) | 0^a (0=60-100% of disease on untreated plants) | 0^a (0=60-100% of disease on untreated plants) | 0^a (0=60-100% of disease on untreated plants) | 0^a (0=60-100% of disease on untreated plants) | 0^a (0=60-100% of disease on untreated plants) | 0^a (0=60-100% of disease on untreated plants) | 0^a (0=60-100% of disease on untreated plants) |  |
| CO/C=C(/C(=O)OC)c1ccccc1Oc1cc(OCCSc2ccccc2C#N)ncn1 [393 of Table I] |  | 0 (0=60-100% of disease on untreated plants) | 4 (4=no disease) | 4 (4=no disease) | 4 (4=no disease) | 4 (4=no disease) | 4 (4=no disease) | 4 (4=no disease) |  | 4 (4=no disease) |  |  |  |  |  |  |  |  |  |
| CO/C=C(/C(=O)OC)c1ccccc1Oc1cc(OCc2cccs2)ncn1 [394 of Table I] |  | 4 (4=no disease) | 4 (4=no disease) | 4 (4=no disease) | 4 (4=no disease) |  | 3 (3=trace-5% of disease on untreated plants) | 4 (4=no disease) | 4 (4=no disease) | 4 (4=no disease) |  |  |  |  |  |  |  |  |  |
| CO/C=C(/C(=O)OC)c1ccccc1Oc1cc(O/N=C(/N)c2cccc(C(F)(F)F)c2)ncn1 [406 of Table I] |  | 1 (1=26-59% of disease on untreated plants) | 4 (4=no disease) | 0 (0=60-100% of disease on untreated plants) | 0 (0=60-100% of disease on untreated plants) |  | 0 (0=60-100% of disease on untreated plants) | 0 (0=60-100% of disease on untreated plants) | 1 (1=26-59% of disease on untreated plants) | 0 (0=60-100% of disease on untreated plants) |  |  |  |  |  |  |  |  |  |
| CO/C=C(/C(=O)OC)c1ccccc1Oc1cc(O/N=C(\C)c2ccc[nH]2)ncn1 [407 of Table I] |  |  |  |  |  |  |  |  |  |  | 0^a (0=60-100% of disease on untreated plants) | 3^a (3=trace-5% of disease on untreated plants) | 4^a (4=no disease) | 0^a (0=60-100% of disease on untreated plants) | 0^a (0=60-100% of disease on untreated plants) |  | 1^a (1=26-59% of disease on untreated plants) | 0^a (0=60-100% of disease on untreated plants) | 1^a (1=26-59% of disease on untreated plants) |
